Measured values published in patent US10765763B2, “Radioligands for myelin” (CASE WESTERN RESERVE UNIVERSITY, priority 2016, dated 2020).
Entries after “also recorded” stand apart in the source; their conditions may differ.

Assays:
[1] = system: myelin; assay: In vitro detection of focal demyelination in LPC rat model; type: binding; settings: in vitro tissue staining
Protocol: Sprague-Dawley female rats (220-250 g, 8 weeks old) were anesthetized and positioned in a stereotaxic frame (Stoelting). A small incision was made in the scalp, and the corpus callosum was targeted using the following stereotaxic coordinates, relative to bregma: anterior-posterior, 0.0 mm; medial-lateral, 2.0 mm; and dorsal-ventral, 3.4 mm A small hole was drilled in the skull, and a 26S-gauge needle attached to a 10 μL Hamilton Syringe was lowered into the corpus callosum according to the dorsal-ventral coordinate. A microinjector pump (Stoelting) controlled the infusion of 6 μL of lysolecithin (LPC, 0.1% in saline) at a rate of 0.25 μL/min, after which the needle was left in place for 2 min in order to prevent liquid reflux out of the brain parenchyma. The incision was then closed using 5-0 Ethicon sutures, and the animals were allowed to recover on a heating pad. After 5-7 days, the animals were ready for study.
Five days after surgery, the rats were anesthetized and perfused with saline followed by 4% PFA. […] Sections were then examined under a microscope (Leica DM4000B, Leica Microsystem Inc., Buffalo Grove, Ill., USA) equipped for fluorescence (DFC7000T), and images of the stained mouse whole brain sections were acquired with the same exposure time. […]

[2] = system: myelin; assay: In situ staining of compound 21 in wild-type mice; type: in vivo, mouse; settings: WT mice, 1.0 mg (50 mg/kg) tail vein, 1 h
Protocol: Wild-type mice were administered the newly synthesized compounds (40 mg/kg) via tail vein injection, and 30-60 min later the mice were perfused transcardially with saline followed by 4% PFA in PBS. Brains and spinal cords were then removed, postfixed by immersion in 4% PFA overnight, dehydrated in 30% sucrose solution, cryostat sectioned at 100 μm, mounted on superfrost slides, and images were acquired directly using a Leica fluorescent microscope.
Following the in vitro studies, we then investigated the ability of compound 21 to readily enter the brain and bind to myelin in situ. A dose of 1.0 mg of compound 21 (50 mg/kg) was administered via the tail vein to wild-type (WT) mice. One hour after injection, the mice were perfused with saline followed by 4% paraformaldehyde (PFA) and the brain and spinal cord were removed and sectioned. The distribution of compound 21 was then directly examined under a fluorescent microscope.

[3] = system: myelin; assay: In situ histological staining of SCI (T13) spinal cord after microPET/CT; type: in vivo, rat; settings: SCI rats, 60 min after tail vein injection
Protocol: After microPET imaging studies, the rats were administered compound 21 (3-5 mg) via tail vein injection, and 60 min later the rats were perfused transcardially with saline followed by 4% PFA in PBS. Spinal cords were then removed, postfixed by immersion in 4% PFA overnight, dehydrated in 30% sucrose solution, cryostat sectioned at 100 μm, mounted consecutively on superfrost slides, and images were sequentially acquired directly using a Leica fluorescent microscope to give a series of 2D microscopic images along the length of the spinal cord. Slices were aligned sequentially using a semiautomated image registration algorithm. Starting from the first slice image, the current slice was used as the reference image for alignment and the next slice was the floating image. The floating image was aligned via control point pairs between corresponding anatomic features in the two images. A 2D rigid-body transformation (translation, rotation) was used to transform the floating image to align with the reference and a minimum of three control point pairs were used for the transformation. […] All slices in the sequence were aligned by this technique, giving a 3D reconstructed fluorescence image volume. Image volumes from fluorescence, PET, and CT were visualized in Amira using volume rendering and aligned based on the shape of the spine and fiducials from the vertebrae. […]

[4] = Quantitative microPET/CT imaging in WT rats, Example 2; type: in vivo, rat
Protocol: (§1) For better anatomic localization, CT co-registration was applied.
Following radiosynthesis, the pharmacokinetic profile of [^18F]21 was fully characterized by quantitative microPET/CT imaging in WT rats (n=3). […] The brain radioactivity peaked at 3 min postinjection followed by rapid clearance before reaching a plateau at 40-60 min postinjection.

[5] = system: myelin; assay: In situ autoradiography of [18F]21 in mouse brain; type: in vivo; settings: coronal, after tail vein injection
Protocol: Wild-type mice were euthanized at 30 min post iv injection of [^18F]21 (111 MBq, 3.0 mCi). The brains were rapidly removed, placed in OCT embedding medium, and frozen at −20° C. After reaching equilibrium at this temperature, the brains were coronally sectioned at 60 μm on a cryostat and mounted on superfrost slides. After drying by air at room temperature, the slides were put in a cassette and exposed for 20 min to film to obtain images.
To validate the PET results and confirm that the PET signals were indeed from specific binding to myelin, we conducted ex vivo autoradiography in the mouse brain following administration of [^18F]21 through tail vein injections. After 1 h, the mouse brain was dissected for coronal tissue sectioning. […] Thus, combination of in situ autoradiography and PET imaging confirmed that [^18F]21 binds specifically to myelin in vivo.

[6] = system: myelin; assay: Quantitative microPET/CT imaging in Shiverer and WT mice; type: in vivo, mouse; settings: microPET
Protocol: as §1
To further evaluate the in vivo binding specificity of [^18F]21, we investigated the pharmacokinetic profiles of [^18F]21 in a Shiverer mouse model that is deficient in myelin in the brain. Thus, the pharmacokinetic profiles of [^18F]21 were quantitatively compared between Shiverer mice (C3Fe.SWV-Mbpshi/J, n=2) and age-matched WT mice (CB57J, n=2).
Dynamic emission scans were acquired for 60 min in 3D list mode immediately after [^18F]21 (0.3 mCi each mouse, 11.1 MBq) was administered. The brain uptake of [^18F]21 was lower in the Shiverer brain than in the WT littermates (1.25 vs 1.64). After the brain concentration of [^18F]21 reached a plateau, the SUVs from 40 to 60 min were summarized and compared.

[7] = system: myelin; assay: Quantitative microPET/CT imaging of spinal cord in rat SCI model; type: in vivo; settings: for uptake in T13: normalized to average spine uptake
Protocol: Sprague-Dawley female rats (220-250 g, 8 weeks old) were anesthetized and a restricted laminectomy was conducted to expose the dorsal surface of T13. The vertebral column between T12 and L1 was then stabilized with clamps and forceps fixed to the base of an Infinite Horizon impact device. The midpoint of T13 was impacted with a force of 250 kDyn using a 2.5 mm stainless steel impactor tip, which was used to induce a moderately severe contusive injury to the spinal cord. The musculature was then sutured over the laminectomy site and the skin closed with wound clips followed by subsequent treatment with Marcaine at the incision site. The force/displacement graph was used to monitor impact consistency. After surgery, the animals were carefully monitored daily for pain and body weight with manual bladder expression 2-3 times daily to stimulate reflex voiding until the animals could urinate independently.
as §1
So far, imaging of the spinal cord remains a great challenge. […] Next, we asked whether [18F]21 PET is capable of in vivo imaging of myelin deficiency or myelin damage in living animal models. We conducted [^18F]21-PET imaging in a rat model of thoracic contusive SCI. In this model, the contusion was made at T13 to introduce demyelination. In vivo [^18F]21 PET imaging was performed before (as a baseline scan) and 1 day after contusion. The uptake of [^18F]21 in every spine segment was then normalized to the average spine uptake. […] After microPET/CT imaging, we conducted in situ histological staining of the spinal cord 60 min after injection of nonlabeled compound 21 through the tail vein.

| SMILES | detection of demyelinated lesion by fluorescent staining [1] | brain/spinal cord entry and in situ myelin staining [2] | in situ histological staining of SCI (T13) tissue section [3] | brain uptake ([4]; WT rats (n=3), microPET/CT) | time constant of clearance ([4]; WT rats, calculated from fitted time-radioactivity curve) | time of peak brain radioactivity ([4]; WT rats, postinjection) | time of plateau of brain radioactivity ([4]; WT rats, postinjection) | autoradiographic labeling [5] | brain uptake ([6]; Shiverer mouse brain) | brain uptake ([6]; WT littermates) | uptake in L1 ([7]; 1 day post-T13 contusion) | uptake in T12 ([7]; 1 day post-T13 contusion) | uptake in T13 ([7]; SCI group, 1 day post-T13 contusion) | uptake in T13 ([7]; baseline scan before contusion) | uptake in L1 ([7]; before contusion) | uptake in T12 ([7]; before contusion) |
| --- | --- | --- | --- | --- | --- | --- | --- | --- | --- | --- | --- | --- | --- | --- | --- | --- |
| CNc1ccc(/C=C/c2ccc(NCc3cn(CCF)nn3)cc2)cc1 [Compound 21, (E)-N-((1-(2-Fluoroethyl)-1H-1,2,3-triazol-4-yl)methyl)-4-(4-(methylamino)styryl)aniline] | capable of detecting the demyelinated focal lesion by fluorescent staining; also recorded: can be used to detect demyelinated lesion | readily entered the brain and spinal cord and localized in all the myelinated regions in proportion to the myelin content; also recorded: crosses the BBB and stains myelinated areas of the mouse brain | showed that a demyelinated lesion was present at the dorsal column | – | – | – | – | – | – | – | – | – | – | – | – | – |
| CNc1ccc(/C=C/c2ccc(NCc3cn(CC[18F])nn3)cc2)cc1 [[^18F]21] | – | – | – | high uptake in the brain | 19.45 min | 3 min | 40 to 60 min | distinctly labeled the corpus callosum | 1.25 | 1.64 | 1.08 | 0.99 | 0.81 | 1.02 | 1.05 | 0.99 |
